In data set [1] the target is T1, CXE1 (Papaver somniferum, UniProt I3PLR2).
T1 construct: corresponding open reading frames were amplified using cDNA derived from total stem RNA of the Bea's Choice chemotype; His-tag (pRSETA leader) (N); made in house; host or cells: Escherichia coli Rosetta (DE3) pLysS
T1 sequence (I3PLR2 1-320): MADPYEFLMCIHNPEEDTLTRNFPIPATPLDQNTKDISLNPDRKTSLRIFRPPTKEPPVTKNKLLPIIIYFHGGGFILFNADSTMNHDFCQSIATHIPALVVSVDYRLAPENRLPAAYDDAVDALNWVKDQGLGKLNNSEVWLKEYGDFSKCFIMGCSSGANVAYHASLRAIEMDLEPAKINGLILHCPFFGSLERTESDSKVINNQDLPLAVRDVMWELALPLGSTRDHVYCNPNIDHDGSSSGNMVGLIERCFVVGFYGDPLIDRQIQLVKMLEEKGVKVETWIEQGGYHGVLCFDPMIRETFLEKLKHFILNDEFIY
As to the kind of experiment: In vitro CXE1 assay with purified recombinant protein. It is filed as biochemical. As to conditions: native recombinant CXE1, pH 8.0, 30° C., 15 min. An excerpt:
(§1) The full-length coding region of CYP82X1 was amplified using cDNA derived from total stem RNA of the Bea's Choice chemotype using Takara Ex Taq DNA polymerase (Fisher Scientific, Ottawa, Canada), and using a primer 5′-[…]-3′ (SEQ ID NO: 607) and reverse primer 5′-[…]-3′ (SEQ ID NO: 608). Owing to problems with heterologous expression in yeast, CYP82X2 was synthesized with the first 60 N-terminal amino acids replaced with the first 43 N-terminal amino acids from the lettuce cytochrome P450 germacrene A oxidase Nguyen, D. T. et al. J. Biol. Chem. 285, 16588-16598 (2010). For heterologous expression of Flag-tagged CYPs in yeast (Saccharomyces cerevisiae), the full-length coding regions of CYP82X1 and CYP82X2 were inserted into the NotI and SpeI restriction sites of the dual plasmid pESC-leu2d::CPR Ro, D.-K., Ouellet, M., Paradise, E. M., Burd, H., Eng, D., Paddon, C. J., Newman, J. D., & Keesling, J. D. BMC Biotech. […] For heterologous expression of CXE1, CXE2, and AT1, corresponding open reading frames were amplified using cDNA derived from total stem RNA of the Bea's Choice chemotype and cloned in-frame an N-terminal His-tag sequence in the Escherichia coli expression vector pRSETA (Invitrogen, Carlsbad, Calif.). […] Microsomal fractions containing recombinant CYP82X1 or CYP82X2 were detected using a-FLAG antibodies, whereas recombinant CPR was detected using α-c-Myc antibodies (FIG. 12 A). […]

Data set [2] addresses T2, CXE2 (Papaver somniferum, UniProt A0A0A1EQ07).
T2 construct: corresponding open reading frames were amplified using cDNA derived from total stem RNA of the Bea's Choice chemotype; His-tag (pRSETA leader) (N); made in house; host or cells: Escherichia coli Rosetta (DE3) pLysS
T2 sequence (A0A0A1EQ07 1-313): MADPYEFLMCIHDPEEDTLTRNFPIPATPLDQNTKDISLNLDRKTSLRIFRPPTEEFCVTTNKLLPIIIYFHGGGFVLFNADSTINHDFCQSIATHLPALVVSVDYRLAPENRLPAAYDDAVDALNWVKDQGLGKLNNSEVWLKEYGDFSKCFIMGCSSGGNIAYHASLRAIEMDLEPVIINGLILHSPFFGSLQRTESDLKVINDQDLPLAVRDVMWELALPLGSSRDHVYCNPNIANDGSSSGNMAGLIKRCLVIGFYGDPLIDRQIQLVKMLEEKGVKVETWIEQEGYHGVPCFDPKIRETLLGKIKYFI
As to the kind of experiment: In vitro CXE2 assay with purified recombinant protein. Conditions: E. coli produced CXE2. It is filed as biochemical.
Excerpt: as §1

The target in data set [3] is T3, CYP82X2 (UniProt D5J9U8+I3PLR0).
T3 construct: the full-length coding regions of CYP82X1 and CYP82X2 were inserted into the NotI and SpeI restriction sites; FLAG; made in house; host or cells: Saccharomyces cerevisiae YPL 154C:Pep4, microsomal fraction
T3 sequence (D5J9U8+I3PLR0 with tags, fused parts or gaps): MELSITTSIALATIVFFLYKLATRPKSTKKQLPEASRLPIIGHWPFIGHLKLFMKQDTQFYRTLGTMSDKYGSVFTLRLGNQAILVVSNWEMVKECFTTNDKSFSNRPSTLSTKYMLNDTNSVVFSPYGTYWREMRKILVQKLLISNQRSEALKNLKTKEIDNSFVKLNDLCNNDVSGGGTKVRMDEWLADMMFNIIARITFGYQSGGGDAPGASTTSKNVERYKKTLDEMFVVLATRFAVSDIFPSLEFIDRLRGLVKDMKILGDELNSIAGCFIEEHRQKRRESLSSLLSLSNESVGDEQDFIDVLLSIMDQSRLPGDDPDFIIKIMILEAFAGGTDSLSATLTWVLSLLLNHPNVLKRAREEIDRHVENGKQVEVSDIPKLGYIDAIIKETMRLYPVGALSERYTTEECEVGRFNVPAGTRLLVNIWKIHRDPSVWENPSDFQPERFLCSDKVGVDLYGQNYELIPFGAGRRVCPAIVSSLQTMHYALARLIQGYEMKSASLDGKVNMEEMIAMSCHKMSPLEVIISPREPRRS
Put plainly: In vitro enzyme assay with yeast microsomal fractions containing CYP82X2 (CPR/82X2). It is filed as biochemical, Papaver somniferum. As to conditions: yeast microsomes (CPR/82X2), extracted ion chromatograms, FIG. 13. An excerpt: (§2) The full-length coding region of CYP82X1 was amplified using cDNA derived from total stem RNA of the Bea's Choice chemotype using Takara Ex Taq DNA polymerase (Fisher Scientific, Ottawa, Canada), and using a primer 5′-[…]-3′ (SEQ ID NO: 607) and reverse primer 5′-[…]-3′ (SEQ ID NO: 608). Owing to problems with heterologous expression in yeast, CYP82X2 was synthesized with the first 60 N-terminal amino acids replaced with the first 43 N-terminal amino acids from the lettuce cytochrome P450 germacrene A oxidase Nguyen, D. T. et al. J. Biol. Chem. 285, 16588-16598 (2010). For heterologous expression of Flag-tagged CYPs in yeast (Saccharomyces cerevisiae), the full-length coding regions of CYP82X1 and CYP82X2 were inserted into the NotI and SpeI restriction sites of the dual plasmid pESC-leu2d::CPR Ro, D.-K., Ouellet, M., Paradise, E. M., Burd, H., Eng, D., Paddon, C. J., Newman, J. D., & Keesling, J. D. BMC Biotech. 8, 83 (2008) yielding pESC-Leu2d::CYP82X1/CPR and pESC-Leu2d::CYP82X2/CPR. The protease-deficient yeast strain YPL 154C:Pep4 was transformed with pESC-Leu2d::CYP82X1/CPR and pESC-Leu2d::CYP82X2/CPR. Yeast culture, microsome preparation, and immunoblot analysis were performed as described previously Dang, T.-T. T. & Facchini, P. J. J. Biol. Chem. 289, 2013-2026 (2014). For heterologous expression of CXE1, CXE2, and AT1, corresponding open reading frames were amplified using cDNA derived from total stem RNA of the Bea's Choice chemotype and cloned in-frame an N-terminal His-tag sequence in the Escherichia coli expression vector pRSETA (Invitrogen, Carlsbad, Calif.). CXE1 and CXE2 were individually inserted into the SacI and HindIII restriction sties, whereas AT1 was inserted into the KpnI and HindIII sites, of pRSETA using a primer 5′-[…]-3′ (SEQ ID NO: 609) and reverse primer 5′-[…]-3′ (SEQ ID NO: 610). […] Microsomal fractions containing recombinant CYP82X1 or CYP82X2 were detected using a-FLAG antibodies, whereas recombinant CPR was detected using α-c-Myc antibodies (FIG. 12 A). […]

The target of data set [4] is T4, CYP82X1 (Papaver somniferum, UniProt I3V6B7).
T4 construct: The full-length coding region of CYP82X1 was amplified using cDNA derived from total stem RNA of the Bea's Choice chemotype; FLAG; made in house; host or cells: Saccharomyces cerevisiae YPL 154C:Pep4, microsomal fraction
T4 sequence (I3V6B7 1-540): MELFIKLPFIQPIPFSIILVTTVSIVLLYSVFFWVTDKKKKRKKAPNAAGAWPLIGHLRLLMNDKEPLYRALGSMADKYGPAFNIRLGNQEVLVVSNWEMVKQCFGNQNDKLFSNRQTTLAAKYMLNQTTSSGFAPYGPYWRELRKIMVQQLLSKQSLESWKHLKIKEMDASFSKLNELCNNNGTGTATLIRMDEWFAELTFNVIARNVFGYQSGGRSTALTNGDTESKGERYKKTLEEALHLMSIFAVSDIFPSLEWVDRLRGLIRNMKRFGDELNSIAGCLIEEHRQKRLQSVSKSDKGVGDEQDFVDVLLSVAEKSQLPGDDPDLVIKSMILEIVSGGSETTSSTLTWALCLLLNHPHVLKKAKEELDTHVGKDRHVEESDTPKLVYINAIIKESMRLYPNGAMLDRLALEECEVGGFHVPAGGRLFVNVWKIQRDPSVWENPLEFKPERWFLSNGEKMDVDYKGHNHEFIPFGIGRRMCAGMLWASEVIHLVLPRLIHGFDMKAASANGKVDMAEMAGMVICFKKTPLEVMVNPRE
As to the kind of experiment: In vitro enzyme assay with yeast microsomal fractions containing CYP82X1 (CPR/82X1). It is filed as biochemical. Conditions: yeast microsomes (CPR/82X1), extracted ion chromatograms, FIG. 13.
Excerpt: as §2

Data set [5] addresses T5, AT1 (Papaver somniferum, UniProt I3PLR4).
T5 construct: corresponding open reading frames were amplified using cDNA derived from total stem RNA of the Bea's Choice chemotype; His-tag (pRSETA leader) (N); made in house; host or cells: Escherichia coli Rosetta (DE3) pLysS
T5 sequence (I3PLR4 1-471): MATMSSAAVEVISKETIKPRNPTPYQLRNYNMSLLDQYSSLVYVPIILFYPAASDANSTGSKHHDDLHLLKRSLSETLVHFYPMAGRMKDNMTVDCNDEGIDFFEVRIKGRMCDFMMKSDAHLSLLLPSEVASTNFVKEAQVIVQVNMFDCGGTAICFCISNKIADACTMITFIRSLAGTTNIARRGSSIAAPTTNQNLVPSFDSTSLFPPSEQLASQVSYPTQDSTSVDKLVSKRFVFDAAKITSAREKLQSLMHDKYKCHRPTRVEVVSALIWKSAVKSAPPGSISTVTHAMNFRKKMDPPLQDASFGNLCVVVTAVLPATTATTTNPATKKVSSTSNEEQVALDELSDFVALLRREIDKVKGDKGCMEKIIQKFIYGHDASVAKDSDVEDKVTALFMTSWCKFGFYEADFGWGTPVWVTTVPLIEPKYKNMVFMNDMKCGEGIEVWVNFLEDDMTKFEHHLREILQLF
Put plainly: In vitro AT1 assay with purified recombinant protein. It is filed as biochemical. Conditions: native recombinant AT1, 50 μM acetyl-CoA, pH 8.0, 30° C., 15 min.
Excerpt: as §1

The structures appear in SMILES notation.

Consider `COc1ccc(C(OC(C)=O)C2c3c(cc4c(c3OC)OCO4)CCN2C)c(C=O)c1OC` (centres unmarked) [3-O-acetylpapaveroxine], for which, in data set [1], the “conversion as substrate by CXE1” value was “yielding papaveroxine”. For the same molecule, the “conversion as substrate by CXE2” value in data set [2] is given as “form narcotine hemiacetal”.

Regarding `COc1ccc2c(c1OC)C[N+]1(C)CCc3cc4c(c(O)c3C1C2O)OCO4` [(S)-1,13-dihydroxy-N-methylcanadine], the “conversion as substrate by CYP82X2” value in data set [3] is “No products were detected”. In addition, the “conversion as substrate by CYP82X1” value in data set [4] is listed as “No products were detected”. Besides, the “conversion as substrate by AT1” value in data set [5] is “forming (S)-1-hydroxy-13-O-acetyl-N-methylcanadine”.
